Legend:
SUM159 = test: Colony formation assay in SUM159; format: cell-based; details: SUM159, half and full IC50 concentrations, 6 days
Protocol: The ability of compounds 1, 7A, and 7B to prevent colony formation was assessed in SUM159, a Triple Negative Breast Cancer cell line. Cells were grown to 80% confluency in T75 flasks in DMEM supplemented with 10% FBS, 1% amphotericin, 1% penicillin/streptomycin, and 5 μg/mL insulin. Media was discarded and trypsin added for 5 minutes to detach cells. Media was added to neutralize the trypsin and mixture was transferred to centrifuge tube. After centrifugation at 2000 RPM for 5 minutes, the pellet was washed with PBS and resuspended in 2 mL of above media. Cell density was assessed via hemocytometer and solution diluted to 2,000 cells/mL. Cells were plated in 6-well clear bottom plates at 2,000 cells/well. Treatment conditions included control (0.5% DMSO), and compounds 1, 7A, and 7B at both half and full IC5. concentrations, All treatments were plated in triplicate for a total of 21 wells used. Plates were placed in the incubator at 37° C. and 5-10% CO2 for six days. […]
(§1) To further characterize the improved bioactivity of compounds 7A and 7B to compound 1, colonogenic and mammmosphere formation assays were performed in TNBC cell line SUM159 at full and half IC50 values (FIG. 7A-7B). […] Using colony formation assay, we evaluated the antiproliferative effects of 7A in SUM159 cells. […]

[1] = tested on: TNBC cell lines MDA-MB-231, MDA-MB-468, SUM159; test: MTT cell viability assay, 24 h exposure, three TNBC cell lines; format: cell-based
Protocol: Cell Viability Assay for Compounds 1-8: The cytotoxicity for compounds 1-8 was assessed in three Triple Negative Breast Cancer cell lines: MDA-MB-231, MDA-MB-468, an SUM159. Cells were grown to 80% confluency in T75 flasks. Media was discarded and trypsin added for 5 minutes to detach cells. Media was added to neutralize the trypsin and mixture was transferred to centrifuge tube. After centrifugation at 2000 RPM for 5 minutes, the pellet was washed with PBS and resuspended in 2 mL appropriate media. Cell density was assessed via hemocytometer and solution diluted to 40,000 cells/mL. A 96-well clear bottom plate was prepared by adding media to rows 1 and 8 and columns 1, 2, 11, and 12 to prevent evaporation from impacting sample wells. Cells were plated in the inner wells with 100 μL per well (4,000 cells/well). Plates were placed in the incubator at 37° C. and 5-10% CO2 overnight to allow cells to acclimate and adhere.
Compounds 1-8 were prepared as 80 mM stock solutions in DMSO. The stock was diluted 20 μL to 4 mL with the appropriate media to yield a new stock concentration of 400 μM and DMSO concentration of 0.5% v/v. This stock was used for six serial dilutions (1/2×) to obtain a range of concentrations from 6.25 to 400 μM. […]
Plates were removed from the incubator and treatment solutions removed. […] Plates were then read on a Biotek Synergy H1 Plate Reader at 570 nm (peak absorbance). […]

SUM159 mammosphere = test: Mammosphere formation assay in SUM159; format: cell-based; details: SUM159, half or full IC50 concentration, 6 days
Protocol: The ability of Compounds 1, 7A, and 7B to prevent mammosphere formation was assessed in SUM159, a Triple Negative Breast Cancer cell line. Cells were grown to 80% confluency in T75 flasks in DMEM supplemented with 10% FBS, 1% amphotericin, 1% penicillin/streptomycin, and 5 μg/mL insulin, Media was discarded and trypsin added for 5 minutes to detach cells. Media was added to neutralize the trypsin and mixture was transferred to centrifuge tube. After centrifugation at 2000 RPM for 5 minutes, the pellet was washed with PBS and resuspended in 2 mL mammosphere media. Mammosphere media consists of MammoCult Human Medium (StemCell Technologies) supplemented with Heparin ([…], StermCellTechnologies) and Hydrocortisone (0.48 μg/ml, StemCell Technologies). Cell density was assessed via hemocytometer and solution diluted to 8,000 cells/mL in mammosphere media. A 24-well ultra-low-attachment clear bottom plate was prepared. Cells were plated in all wells with 500 μL per well (4,000 cells/well). […]
as §1

[2] = tested on: TNBC cells, including MDA-MB-231 and MDA-MB-468 cells; details: 24 h; read-out: activity of machilin D (comparison value); cited from earlier work

| Compound | colony formation (SUM159) | cytotoxicity (IC50) comparison of diastereomers ([1]; MTT, all three TNBC cell lines) | mammosphere growth (SUM159 mammosphere) | IC50 [2] [µM] | IC50 ([1]; 24 h exposure, range across MDA-MB-468, MDA-MB-231, SUM159, diastereomeric mixture) [µM] |
| --- | --- | --- | --- | --- | --- |
| C/C=C/c1ccc(O[C@@H](C)[C@@H](OCC(C)C)c2ccc(O)c(OC)c2)c(OC)c1 (racemic) [Compound 7A] | colony formation was inhibited | significantly improved cytotoxicity values over 7B | effective inhibition | – | – |
| C/C=C/c1ccc(O[C@@H](C)[C@@H](O)c2ccc(O)c(OC)c2)c(OC)c1 [machilin D] | – | – | – | ~100 | – |
| machilin C/D [Compound 1] | slow colony formation | – | slow colony formation and mammosphere growth | – | 167 to 180 |

— patent US20250090480A1, “UNIQUE ANALOGS OF NATURAL LIGNANS USEFUL FOR TREATING TRIPLE NEGATIVE BREAST CANCER” (University of Kentucky Research Foundation, priority 2023, published 2025)
